One data set deals with C4-HSL autoinducer. To be noted: 50 μg of erythromycin/ml; cited from earlier work.
Another data set deals with rhlAB operon. The experiment in a line: rhlA'-lacZ reporter (pECP60) expression of the rhlAB operon, beta-Gal activity, with growth curves. To be noted: 2 μg/ml, LB medium, 16 hours. Type of data set: cell-based, P. aeruginosa. How it is done: P. aeruginosa strain PAO1, harbouring the fusion gene pECP60 of rhlA′ with the lacZ reporter (Pesci, E. C., Pearson, J. P., Seed, P. C., Iglewski, B. H., J. Bacteriol. 1997, 179, 3127-3132), was grown for 16 hours in LB medium either in the absence or presence of 2 μg/ml azithromycin and the activity of β-galactosidase (β-Gal) (Miller, J. H., “Experiments in Molecular Genetics”, p. 352-355. Cold Spring Harbor Laboratory, Cold Spring Harbor, N.Y.) was measured in both cultures in intervals of 4 hours. The results of 6 experiments (mean±SD) for each culture were plotted against sampling time (FIG. 1c).

The test system of data set [1] is P. aeruginosa strain PAO1. Put plainly: Cell growth of P. aeruginosa PAO1 in LB medium (turbidity at 660 nm) and SDS-PAGE of total protein extracts. It is filed as cell-based. How it is done: P. aeruginosa strain PAO1 was grown for a total of 10 hours on Luria-Bertani (LB) medium containing 2, 3, 4 and 5 μg/ml of azithromycin, respectively. The cell growth in the media was measured by optical absorbance measurements (turbidity) at 660 nm in intervals of 2 h.

Data set [2] concerns lasR, rhlR, lasI and rhlI genes. The experiment in a line: lacZ reporter fusions of lasR, rhlR, lasI, rhlI, beta-Gal activity. Type of data set: cell-based, P. aeruginosa. To be noted: 2 μg/ml azithromycin, 10 h. As for the experimental part: Cultures of P. aeruginosa strain PAO1, harbouring the fusion gene of lasR′ with lacZ reporter (pPCS10011; Pesci, E. C., Pearson, J. P., Seed, P. C., Iglewski, B. H., J. Bacteriol. 1997, 179, 3127-3132), or the fusion gene of rhlR′ with lacZ (pPCS1002; ibid.), or the fusion gene of lasI′ with lacZ (pPCS223; Van Delden, C., Pesci, E. C., Pearson, J. P., Iglewski, B. H., Infect. Immun. 1998, 66, 4499-4502), or the fusion gene of rhlI′ with lacZ (pLPRI; ibid.) were grown for 10 h in broth medium either in the absence or presence of 2 μg/ml azithromycin and the β-Gal activity was then determined. The results for lasR and rhlR are shown in FIG. 2a) and for lasI and rhlI in FIG. 2b) (plotted bars are the mean ±SD of 6 individual experiments each).

Another data set has as its system 3-oxo-C12-HSL. The experiment in a line: Production of 3-oxo-C12-HSL autoinducer, specific bioassay of ethyl acetate extracts of supernatants. Type of data set: cell-based, P. aeruginosa. As to conditions: 2 μg/ml, LB medium, 12 hours, strain PAO1. As for the experimental part: (§1) P. aeruginosa strain PAO1 was grown in LB medium for 12 hours either in the absence or presence of 2 μg/ml of azithromycin. The formed 3-oxo-C12—HSL and C4—HSL autoinducers were extracted from the supernatants of both cultures with ethyl acetate and their respective concentrations were measured using specific bioassays (Pearson, J. P., Pesci, E. C., Iglewski, B. H., J. Bacteriol. 1997, 179, 3127-3132; Seed, P. C, Passador, L., Iglewski, B. H., J. Bacteriol. 1995, 177, 654-659). The results are plotted in FIG. 3 a). In the presence of the macrolide the concentrations of 3-oxo-C12-HSL and C4-HSL were reduced by 94 and 72%, respectively.

The subject of another data set is C4-HSL. The experiment in a line: Production of C4-HSL autoinducer, specific bioassay of ethyl acetate extracts of supernatants. Type of data set: cell-based, P. aeruginosa. As to conditions: 2 μg/ml, LB medium, 12 hours, strain PAO1. How it is done:
as §1

Data set [3] has as its system P. aeruginosa strain PAO1. Put plainly: Growth curves (optical density at 660 nm) in the elastase production experiment. It is filed as cell-based. As to conditions: 2 μg/ml, broth medium, 16 hours. How it is done:
P. aeruginosa strain PAO1 was grown over a total of 16 hours in broth medium either without azithromycin or with 2 μg/ml azithromycin. Samples of the supernatants of both cultures were taken in intervals of 4 hours and the activity of elastase in the samples was determined using elastin Congo red assays (Pearson, J. P., Pesci, E. C., Iglewski, B. H., J. Bacteriol. 1997, 179, 5756-5767). The measured elastase activity was plotted against the sampling times, giving FIG. 1b).

Data set [4] concerns P. aeruginosa strain PAO1. The experiment in a line: Qualitative rhamnolipid plate assay on M9-based agar with azithromycin gradient. As to conditions: gradient from 0 μg/ml to 20 μg/ml in agar. Type of data set: cell-based. As for the experimental part:
P. aeruginosa strain PAO1 was grown on M9-based agar plates (Siegmund, I., Wagner, F., Biotechnol. Tech. 1991, 5, 265-268) into which a gradient of azithromycin from 0 μg/ml to 20 μg/ml was incorporated. The qualitative Rhamnolipid® plate assay was used.

The conditions of data set [5]: in vivo; cited from earlier work.
For the next data set, the system named is P. aeruginosa strains. To be noted: clinical trials; cited from earlier work.
Setting [6] is: 2 μg of azithromycin/ml, LB medium, strain PAO1.

This is an account of results in patent publication US20040197341A1, “Therapeutic process for p. aeruginosa infections using macrolide antibiotics” (priority 2004, published 2004).

As for `CC[C@H]1OC(=O)[C@H](C)[C@@H](O[C@H]2C[C@@](C)(OC)[C@@H](O)[C@H](C)O2)[C@H](C)[C@@H](O[C@@H]2O[C@H](C)C[C@H](N(C)C)[C@H]2O)[C@](C)(O)C[C@@H](C)C(=O)[C@H](C)[C@@H](O)[C@]1(C)O` [erythromycin], in the data set with C4-HSL autoinducer, the autoinducer production result is “reduction”.
For the compound `CC[C@H]1OC(=O)[C@H](C)[C@@H](O[C@H]2C[C@@](C)(OC)[C@@H](O)[C@H](C)O2)[C@H](C)[C@@H](O[C@@H]2O[C@H](C)C[C@H](N(C)C)[C@H]2O)[C@](C)(O)C[C@@H](C)CN(C)[C@H](C)[C@@H](O)[C@]1(C)O` [azithromycin], the “influence on the growth (optical density at 660 nm)” value in the data set with rhlAB operon is “no significant influence”. Further, in data set [1] (setting [6]), the “effect on exponential growth” value is “slightly affected” and the “effect on the stationary growth phase” value is given as “no effect”. Also, the “inhibition of PAO1” value in data set [1] (in vitro concentration 2 μg/ml) is reported as “does not inhibit PAO1”. Moreover, the “restoration of lasI expression by co-addition of exogenous autoinducers” value in data set [2] (10 μM exogenous autoinducers) is recorded as “could not restore”. The “effect on lasR and rhlR expression on co-adding exogenous 3-oxo-C12-HSL and C4-HSL” value in data set [2] (autoinducers 10 μM each) is “almost completely compensated”. Besides, the “reduction of 3-oxo-C12-HSL concentration” value in the data set with 3-oxo-C12-HSL came out at 94%. Also, in the data set on C4-HSL, the “reduction of C4-HSL concentration” value is given as 72%. Moreover, the “influence on the growth (optical density at 660 nm)” value in data set [3] is reported as “no significant influence”. In data set [4], the “growth on rhamnolipid plates” value is reported as “without a parallel drop in growth” and the production of rhamnolipids result was “progressively decreased”. The “distribution between body tissues and serum/plasma” value in [5] is “tends to accumulate in body tissues”.
Consider `CC[C@H]1OC(=O)[C@H](C)[C@@H](O[C@H]2C[C@@](C)(OC)[C@@H](O)[C@H](C)O2)[C@H](C)[C@@H](O[C@@H]2O[C@H](C)C[C@H](N(C)C)[C@H]2O)[C@](C)(OC)C[C@@H](C)C(=O)[C@H](C)[C@@H](O)[C@]1(C)O` [clarithromycin], for which the “effect on the viability of the microorganism” value in the data set with P. aeruginosa strains is recorded as “no effect”.
